This note sets out measurements from the kinase profiling compilation of Christmann-Franck et al. (2016).

Chain of CAMK2B (human) (Q13554 whole entry, looked up): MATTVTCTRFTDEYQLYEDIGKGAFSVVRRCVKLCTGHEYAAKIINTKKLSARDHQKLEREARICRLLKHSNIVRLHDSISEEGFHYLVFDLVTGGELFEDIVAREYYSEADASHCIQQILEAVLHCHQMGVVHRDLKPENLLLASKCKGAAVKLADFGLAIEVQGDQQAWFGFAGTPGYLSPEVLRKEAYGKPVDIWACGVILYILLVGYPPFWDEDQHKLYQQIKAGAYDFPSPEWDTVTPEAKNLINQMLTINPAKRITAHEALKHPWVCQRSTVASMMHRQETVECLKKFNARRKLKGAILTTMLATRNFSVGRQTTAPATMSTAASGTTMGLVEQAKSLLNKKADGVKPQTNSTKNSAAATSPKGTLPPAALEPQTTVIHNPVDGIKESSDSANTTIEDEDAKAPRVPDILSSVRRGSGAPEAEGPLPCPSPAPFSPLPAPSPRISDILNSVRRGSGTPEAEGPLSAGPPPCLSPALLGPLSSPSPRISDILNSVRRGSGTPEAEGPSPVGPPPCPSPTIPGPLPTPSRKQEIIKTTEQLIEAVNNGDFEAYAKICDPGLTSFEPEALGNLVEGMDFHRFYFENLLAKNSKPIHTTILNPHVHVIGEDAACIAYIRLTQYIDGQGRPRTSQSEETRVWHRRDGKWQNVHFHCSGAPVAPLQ
Chain of SRMS (human) (Q9H3Y6 whole entry, looked up): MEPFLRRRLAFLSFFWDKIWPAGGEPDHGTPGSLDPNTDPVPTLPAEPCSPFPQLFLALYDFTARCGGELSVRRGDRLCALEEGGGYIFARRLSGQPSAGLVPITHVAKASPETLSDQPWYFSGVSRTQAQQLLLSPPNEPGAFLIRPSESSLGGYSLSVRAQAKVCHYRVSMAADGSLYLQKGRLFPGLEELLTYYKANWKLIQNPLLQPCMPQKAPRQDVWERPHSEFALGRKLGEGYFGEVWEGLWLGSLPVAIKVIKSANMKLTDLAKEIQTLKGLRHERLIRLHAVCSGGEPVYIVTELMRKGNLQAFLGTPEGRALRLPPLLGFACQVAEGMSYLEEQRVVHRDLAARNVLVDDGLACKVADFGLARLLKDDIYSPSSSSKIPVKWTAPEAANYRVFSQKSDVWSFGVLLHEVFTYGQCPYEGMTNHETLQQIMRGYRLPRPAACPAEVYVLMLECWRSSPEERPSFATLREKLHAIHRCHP
Chain of PRKCB1 (human) (P05771 whole entry, looked up): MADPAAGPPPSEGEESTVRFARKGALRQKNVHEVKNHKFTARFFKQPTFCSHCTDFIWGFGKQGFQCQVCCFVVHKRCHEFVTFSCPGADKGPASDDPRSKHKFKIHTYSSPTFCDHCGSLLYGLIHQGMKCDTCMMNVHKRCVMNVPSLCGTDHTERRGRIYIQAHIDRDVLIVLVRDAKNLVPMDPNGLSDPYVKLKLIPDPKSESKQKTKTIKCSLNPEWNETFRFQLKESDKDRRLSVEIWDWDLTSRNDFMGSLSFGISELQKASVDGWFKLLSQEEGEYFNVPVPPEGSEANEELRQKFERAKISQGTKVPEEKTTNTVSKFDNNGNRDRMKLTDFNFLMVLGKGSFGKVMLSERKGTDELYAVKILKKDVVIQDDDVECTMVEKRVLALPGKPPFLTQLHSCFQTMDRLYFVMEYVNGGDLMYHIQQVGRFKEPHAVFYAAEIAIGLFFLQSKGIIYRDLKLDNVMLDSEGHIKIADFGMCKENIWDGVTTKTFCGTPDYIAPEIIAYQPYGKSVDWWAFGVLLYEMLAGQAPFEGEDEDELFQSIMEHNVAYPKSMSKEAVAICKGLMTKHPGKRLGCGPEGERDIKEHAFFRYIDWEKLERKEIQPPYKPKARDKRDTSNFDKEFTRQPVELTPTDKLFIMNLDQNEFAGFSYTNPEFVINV

One assay deals with DAPK3 (human) (UniProt O43293). The assay can be described thus: radiometric filter-binding kinase assay, Kinase HotSpot. Conditions: compound 0.5 µM; ATP 10 µM.
Chain of DAPK3 (human) (O43293 whole entry, looked up): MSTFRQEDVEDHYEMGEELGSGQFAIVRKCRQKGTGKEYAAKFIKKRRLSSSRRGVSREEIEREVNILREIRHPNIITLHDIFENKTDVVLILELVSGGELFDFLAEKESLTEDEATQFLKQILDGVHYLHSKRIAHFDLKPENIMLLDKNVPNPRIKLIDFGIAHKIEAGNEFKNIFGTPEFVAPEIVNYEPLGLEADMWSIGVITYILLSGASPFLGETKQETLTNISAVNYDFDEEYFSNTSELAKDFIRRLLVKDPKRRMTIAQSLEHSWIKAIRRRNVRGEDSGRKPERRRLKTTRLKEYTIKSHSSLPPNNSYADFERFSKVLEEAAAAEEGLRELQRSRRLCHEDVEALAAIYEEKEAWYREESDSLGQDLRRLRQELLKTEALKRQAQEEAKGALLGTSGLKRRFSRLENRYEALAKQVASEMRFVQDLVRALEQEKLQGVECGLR
Turning to `O=C1Cc2c([nH]c3ccc(Br)cc23)-c2ccccc2N1`, the residual activity is 111%.

On to `Cn1nc2c3c(cccc31)C(=O)c1ccccc1-2`, for which the residual activity was determined as 102%.

Take `COc1ccc(OC)c2c(=S)c3ccccc3[nH]c12`: the residual activity turned out to be 112%.

The target of the next assay is CAMK2D (human) (UniProt Q13557). Described as above. The conditions noted are these: compound 0.5 µM; ATP 10 µM.
As for `O=C1Cc2c([nH]c3ccc(Br)cc23)-c2ccccc2N1`, the residual activity was 91.1%.

Take `Cn1nc2c3c(cccc31)C(=O)c1ccccc1-2`: the residual activity stood at 90%.

For the compound `COc1ccc(OC)c2c(=S)c3ccccc3[nH]c12`, the residual activity was found to be 89.8%.

For a further assay, the target named is INSR (human) (UniProt P06213). The description is as above. Conditions: compound 0.5 µM; ATP 10 µM.
For the compound `O=C1Cc2c([nH]c3ccc(Br)cc23)-c2ccccc2N1`, the residual activity is 101%.

For the compound `Cn1nc2c3c(cccc31)C(=O)c1ccccc1-2`, the residual activity came to 99.5%.

As to `COc1ccc(OC)c2c(=S)c3ccccc3[nH]c12`, the residual activity turned out to be 102%.

In another assay the target is DCLK2 (human) (UniProt Q8N568). The assay is described as above. The conditions noted are these: compound 0.5 µM; ATP 10 µM.
Chain of DCLK2 (human) (Q8N568 whole entry, looked up): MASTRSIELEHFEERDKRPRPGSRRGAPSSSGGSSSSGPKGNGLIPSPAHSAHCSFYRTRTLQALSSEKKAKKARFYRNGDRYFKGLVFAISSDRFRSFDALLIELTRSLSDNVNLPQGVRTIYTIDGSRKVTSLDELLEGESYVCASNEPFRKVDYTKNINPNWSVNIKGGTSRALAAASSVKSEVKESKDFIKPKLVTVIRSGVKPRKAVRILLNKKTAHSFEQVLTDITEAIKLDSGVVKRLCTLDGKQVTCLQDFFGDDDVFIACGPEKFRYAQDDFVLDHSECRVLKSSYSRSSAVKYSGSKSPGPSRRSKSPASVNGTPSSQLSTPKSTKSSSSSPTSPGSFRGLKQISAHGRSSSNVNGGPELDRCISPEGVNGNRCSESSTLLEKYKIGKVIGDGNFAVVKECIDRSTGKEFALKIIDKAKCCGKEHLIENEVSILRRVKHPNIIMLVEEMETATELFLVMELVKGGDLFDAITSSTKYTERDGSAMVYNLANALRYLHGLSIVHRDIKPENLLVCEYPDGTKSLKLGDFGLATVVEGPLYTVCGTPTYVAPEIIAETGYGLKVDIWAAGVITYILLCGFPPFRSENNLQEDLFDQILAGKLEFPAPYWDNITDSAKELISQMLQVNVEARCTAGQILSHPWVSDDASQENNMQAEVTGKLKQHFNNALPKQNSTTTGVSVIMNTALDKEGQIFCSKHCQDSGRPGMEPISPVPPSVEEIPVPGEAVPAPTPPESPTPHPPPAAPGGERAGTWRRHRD
`O=C1Cc2c([nH]c3ccc(Br)cc23)-c2ccccc2N1`: the residual activity worked out at 94.6%.

In the case of `Cn1nc2c3c(cccc31)C(=O)c1ccccc1-2`, the residual activity is 94.2%.

On to `COc1ccc(OC)c2c(=S)c3ccccc3[nH]c12`, for which the residual activity was 94.6%.

The target of a further assay is PTK2B (human) (UniProt Q14289). Described as above. The conditions noted are these: compound 0.5 µM; ATP 10 µM.
With `O=C1Cc2c([nH]c3ccc(Br)cc23)-c2ccccc2N1`, the residual activity is 102%.

With `Cn1nc2c3c(cccc31)C(=O)c1ccccc1-2`, the residual activity is 102%.

For the compound `COc1ccc(OC)c2c(=S)c3ccccc3[nH]c12`, the residual activity was 92.7%.

The target of the next assay is CAMK4 (human) (UniProt Q16566). The description is as above. The conditions noted are these: compound 0.5 µM; ATP 10 µM.
Chain of CAMK4 (human) (Q16566 whole entry, looked up): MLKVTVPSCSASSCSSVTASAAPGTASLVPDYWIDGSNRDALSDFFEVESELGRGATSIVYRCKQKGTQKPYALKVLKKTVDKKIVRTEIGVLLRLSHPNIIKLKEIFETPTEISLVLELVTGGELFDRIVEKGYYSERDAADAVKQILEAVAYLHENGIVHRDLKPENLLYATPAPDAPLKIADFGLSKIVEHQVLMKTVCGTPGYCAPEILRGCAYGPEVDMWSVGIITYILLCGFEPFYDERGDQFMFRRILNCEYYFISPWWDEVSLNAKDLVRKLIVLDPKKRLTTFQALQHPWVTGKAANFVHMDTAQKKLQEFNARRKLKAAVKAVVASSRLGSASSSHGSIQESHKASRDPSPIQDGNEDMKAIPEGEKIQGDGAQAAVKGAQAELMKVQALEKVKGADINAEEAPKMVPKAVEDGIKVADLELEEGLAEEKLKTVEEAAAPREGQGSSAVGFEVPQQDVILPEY
For `O=C1Cc2c([nH]c3ccc(Br)cc23)-c2ccccc2N1`, the residual activity worked out at 98.1%.

`Cn1nc2c3c(cccc31)C(=O)c1ccccc1-2`: the residual activity is 100%.

With `COc1ccc(OC)c2c(=S)c3ccccc3[nH]c12`, the residual activity is 101%.

The next assay has as its target CAMK2B (human) (UniProt Q13554). The description is as above. The conditions noted are these: compound 0.5 µM; ATP 10 µM.
In the case of `O=C1Cc2c([nH]c3ccc(Br)cc23)-c2ccccc2N1`, the residual activity was 97.8%.

Turning to `Cn1nc2c3c(cccc31)C(=O)c1ccccc1-2`, the residual activity came to 95.3%.

On to `COc1ccc(OC)c2c(=S)c3ccccc3[nH]c12`, for which the residual activity worked out at 104%.

A further assay concerns the target SRMS (human) (UniProt Q9H3Y6). Described as above. The conditions noted are these: compound 0.5 µM; ATP 10 µM.
For `O=C1Cc2c([nH]c3ccc(Br)cc23)-c2ccccc2N1`, the residual activity turned out to be 105%.

Turning to `Cn1nc2c3c(cccc31)C(=O)c1ccccc1-2`, the residual activity amounted to 104%.

Turning to `COc1ccc(OC)c2c(=S)c3ccccc3[nH]c12`, the residual activity was 83.5%.

The target of a further assay is TNK2 (human) (UniProt Q07912). The assay is described as above. Conditions: compound 0.5 µM; ATP 10 µM.
With `O=C1Cc2c([nH]c3ccc(Br)cc23)-c2ccccc2N1`, the residual activity was determined as 38.8%.

For the compound `Cn1nc2c3c(cccc31)C(=O)c1ccccc1-2`, the residual activity turned out to be 83.3%.

For `COc1ccc(OC)c2c(=S)c3ccccc3[nH]c12`, the residual activity was found to be 96.3%.

The target of another assay is CAMK2A (human) (UniProt Q9UQM7). Described as above. The conditions noted are these: compound 0.5 µM; ATP 10 µM.
As for `O=C1Cc2c([nH]c3ccc(Br)cc23)-c2ccccc2N1`, the residual activity came out at 105%.

Regarding `Cn1nc2c3c(cccc31)C(=O)c1ccccc1-2`, the residual activity came out at 106%.

For the compound `COc1ccc(OC)c2c(=S)c3ccccc3[nH]c12`, the residual activity was determined as 100%.

The target in another assay is CLK3 (human) (UniProt P49761). The assay is described as above. The conditions noted are these: compound 0.5 µM; ATP 10 µM.
Consider `O=C1Cc2c([nH]c3ccc(Br)cc23)-c2ccccc2N1`, for which the residual activity was determined as 99.3%.

In the case of `Cn1nc2c3c(cccc31)C(=O)c1ccccc1-2`, the residual activity was determined as 98.5%.

Take `COc1ccc(OC)c2c(=S)c3ccccc3[nH]c12`: the residual activity stood at 96.3%.

For another assay, the target named is TEC (human) (UniProt P42680). The assay is described as above. The conditions noted are these: compound 0.5 µM; ATP 10 µM.
For `O=C1Cc2c([nH]c3ccc(Br)cc23)-c2ccccc2N1`, the residual activity turned out to be 96.4%.

On to `Cn1nc2c3c(cccc31)C(=O)c1ccccc1-2`, for which the residual activity was 102%.

As to `COc1ccc(OC)c2c(=S)c3ccccc3[nH]c12`, the residual activity was 147%.

The target of another assay is EPHB3 (human) (UniProt P54753). Described as above. The conditions noted are these: compound 0.5 µM; ATP 10 µM.
With `O=C1Cc2c([nH]c3ccc(Br)cc23)-c2ccccc2N1`, the residual activity turned out to be 92.3%.

As to `Cn1nc2c3c(cccc31)C(=O)c1ccccc1-2`, the residual activity was 85.5%.

With `COc1ccc(OC)c2c(=S)c3ccccc3[nH]c12`, the residual activity came to 91%.

A further assay addresses PRKCB1 (human) (UniProt P05771). The assay is described as above. Conditions: compound 0.5 µM; ATP 10 µM.
Regarding `O=C1Cc2c([nH]c3ccc(Br)cc23)-c2ccccc2N1`, the residual activity stood at 93.1%.

`Cn1nc2c3c(cccc31)C(=O)c1ccccc1-2`: the residual activity is 94.7%.

In the case of `COc1ccc(OC)c2c(=S)c3ccccc3[nH]c12`, the residual activity came to 101%.

Another assay concerns the target ROS1 (human) (UniProt P08922). Described as above. The conditions noted are these: compound 0.5 µM; ATP 10 µM.
`O=C1Cc2c([nH]c3ccc(Br)cc23)-c2ccccc2N1`: the residual activity was determined as 83.6%.

For `Cn1nc2c3c(cccc31)C(=O)c1ccccc1-2`, the residual activity stood at 104%.

Regarding `COc1ccc(OC)c2c(=S)c3ccccc3[nH]c12`, the residual activity came to 103%.

A further assay has as its target ZAP70 (human) (UniProt P43403). Described as above. Conditions: compound 0.5 µM; ATP 10 µM.
Consider `O=C1Cc2c([nH]c3ccc(Br)cc23)-c2ccccc2N1`, for which the residual activity was determined as 93.6%.

In the case of `Cn1nc2c3c(cccc31)C(=O)c1ccccc1-2`, the residual activity is 95.1%.

For the compound `COc1ccc(OC)c2c(=S)c3ccccc3[nH]c12`, the residual activity was 100%.

A further assay addresses TAOK1 (human) (UniProt Q7L7X3). Described as above. The conditions noted are these: compound 0.5 µM; ATP 10 µM.
As for `O=C1Cc2c([nH]c3ccc(Br)cc23)-c2ccccc2N1`, the residual activity stood at 99.4%.

For the compound `Cn1nc2c3c(cccc31)C(=O)c1ccccc1-2`, the residual activity was found to be 100%.

For the compound `COc1ccc(OC)c2c(=S)c3ccccc3[nH]c12`, the residual activity is 95.7%.

In the next assay the target is AKT3 (human) (UniProt Q9Y243). The description is as above. The conditions noted are these: compound 0.5 µM; ATP 10 µM.
Chain of AKT3 (human) (Q9Y243 whole entry, looked up): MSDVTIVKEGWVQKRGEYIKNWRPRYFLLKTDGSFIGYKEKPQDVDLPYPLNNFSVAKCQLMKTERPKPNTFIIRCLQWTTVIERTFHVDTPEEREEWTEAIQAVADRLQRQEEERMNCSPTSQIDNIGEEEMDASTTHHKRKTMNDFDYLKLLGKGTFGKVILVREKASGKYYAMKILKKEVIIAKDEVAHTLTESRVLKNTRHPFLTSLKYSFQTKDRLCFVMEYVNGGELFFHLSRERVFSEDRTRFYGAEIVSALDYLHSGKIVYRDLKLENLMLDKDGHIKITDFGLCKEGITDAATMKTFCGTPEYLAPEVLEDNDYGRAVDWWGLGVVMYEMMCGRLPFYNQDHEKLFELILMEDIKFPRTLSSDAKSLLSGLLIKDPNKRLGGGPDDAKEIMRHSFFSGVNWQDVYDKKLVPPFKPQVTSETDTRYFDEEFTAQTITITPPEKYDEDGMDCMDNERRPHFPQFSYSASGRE
As to `O=C1Cc2c([nH]c3ccc(Br)cc23)-c2ccccc2N1`, the residual activity is 105%.

For `Cn1nc2c3c(cccc31)C(=O)c1ccccc1-2`, the residual activity was found to be 102%.

Regarding `COc1ccc(OC)c2c(=S)c3ccccc3[nH]c12`, the residual activity came to 92%.

The next assay deals with ULK1 (human) (UniProt O75385). Described as above. The conditions noted are these: compound 0.5 µM; ATP 10 µM.
`O=C1Cc2c([nH]c3ccc(Br)cc23)-c2ccccc2N1`: the residual activity amounted to 93.8%.

With `Cn1nc2c3c(cccc31)C(=O)c1ccccc1-2`, the residual activity was determined as 101%.

Regarding `COc1ccc(OC)c2c(=S)c3ccccc3[nH]c12`, the residual activity was 114%.

Another assay addresses CDK4 CCND1 (human) (UniProt P24385+P11802). Described as above. The conditions noted are these: compound 0.5 µM; ATP 10 µM.
Regarding `O=C1Cc2c([nH]c3ccc(Br)cc23)-c2ccccc2N1`, the residual activity is 84%.

Turning to `Cn1nc2c3c(cccc31)C(=O)c1ccccc1-2`, the residual activity amounted to 98.9%.

For the compound `COc1ccc(OC)c2c(=S)c3ccccc3[nH]c12`, the residual activity is 93.5%.

In a further assay the target is TBK1 (human) (UniProt Q9UHD2). The assay is described as above. Conditions: compound 0.5 µM; ATP 10 µM.
Chain of TBK1 (human) (Q9UHD2 whole entry, looked up): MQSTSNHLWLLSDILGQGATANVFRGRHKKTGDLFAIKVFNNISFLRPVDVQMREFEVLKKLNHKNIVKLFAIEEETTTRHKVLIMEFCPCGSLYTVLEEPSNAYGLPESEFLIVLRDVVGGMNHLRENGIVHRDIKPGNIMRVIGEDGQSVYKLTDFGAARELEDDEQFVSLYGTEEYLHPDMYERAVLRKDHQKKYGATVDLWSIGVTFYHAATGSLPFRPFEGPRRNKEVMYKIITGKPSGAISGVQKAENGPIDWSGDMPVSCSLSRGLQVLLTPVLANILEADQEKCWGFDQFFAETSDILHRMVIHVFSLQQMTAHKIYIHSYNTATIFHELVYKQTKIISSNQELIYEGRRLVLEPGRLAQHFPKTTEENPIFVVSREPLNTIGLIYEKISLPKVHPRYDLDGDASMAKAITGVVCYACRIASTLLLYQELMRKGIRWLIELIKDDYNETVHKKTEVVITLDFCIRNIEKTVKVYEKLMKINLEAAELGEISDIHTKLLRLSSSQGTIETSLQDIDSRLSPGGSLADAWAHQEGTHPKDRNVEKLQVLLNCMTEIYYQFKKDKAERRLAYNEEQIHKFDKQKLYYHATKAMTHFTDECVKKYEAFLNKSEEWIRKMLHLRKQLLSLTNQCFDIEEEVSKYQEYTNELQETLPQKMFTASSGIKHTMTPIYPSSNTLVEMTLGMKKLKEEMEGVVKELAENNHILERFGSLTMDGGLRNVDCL
Consider `O=C1Cc2c([nH]c3ccc(Br)cc23)-c2ccccc2N1`, for which the residual activity is 93%.

`Cn1nc2c3c(cccc31)C(=O)c1ccccc1-2`: the residual activity was 88.8%.

In the case of `COc1ccc(OC)c2c(=S)c3ccccc3[nH]c12`, the residual activity worked out at 97.5%.
